Results published in patent US6274715A, “Tricyclic erythromycin derivatives” (priority 1997, dated 2001).
≈ marks a conversion by molar mass, not a printed value. Read-outs that look alike come from different tables or passages of the source.

How the values were obtained:
Format in all cases: cell-based
[1] = system: ESCHERICHIA COLI H560; test: In vitro antibacterial activity, MIC, BHI agar dilution; conditions: E. coli H560, unit assumed
[2] = system: PSEUDOMONAS AERUGINOSA K799/WT; test: as above; conditions: P. aeruginosa K799/WT
[3] = system: STAPHYLOCOCCUS AUREUS NCTC10649M; test: as above; conditions: S. aureus NCTC10649M
[4] = system: ESCHERICHIA COLI SS; test: as above; conditions: E. coli SS, unit assumed
[5] = system: ESCHERICHIA COLI JUHL; conditions: E. coli JUHL; BHI agar; unit assumed
[6] = system: STAPHYLOCOCCUS AUREUS 1775; test: In vitro antibacterial activity, MIC, BHI agar dilution; conditions: S. aureus 1775, unit assumed
[7] = system: PSEUDOMONAS AERUGINOSA DPHD-2862; test: as above; conditions: P. aeruginosa DPHD-2862, unit assumed
[8] = system: PSEUDOMONAS CEPACIA 296I; test: as above; conditions: P. cepacia 296I, unit assumed
[9] = system: STAPHYLOCOCCUS AUREUS A5177; test: as above; conditions: S. aureus A5177, unit assumed
[10] = system: ENTEROBACTER AEROGENES ATCC 13048; test: as above
[11] = system: STR[…] 508; test: as above
Outline: (§1)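 Twelve successive aqueous dilutions of compound in Brain Heart Infusion agar were inoculated with 1:100 culture dilutions (1:10 for slow growers such as Micrococcus, Streptococcus) by Steers replicator and incubated at 35-37° C for 20 to 24 hours. MIC was the lowest concentration giving no growth, slight haze or sparse colonies versus drug-free control.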

[12] = system: EN[…] ATCC 8043; test: as above; conditions: E. faecium ATCC 8043, unit assumed
Outline: as §1

[13] = system: M[…] ATCC 4698; test: as above
Outline: as §1

[14] = system: M[…] ATCC 9341; test: as above
Outline: as §1

[15] = system: ESCHERICHIA COLI DC-2; test: as above
[16] = system: STREPTOCOCCUS BOVIS A-5169; test: as above
[17] = system: STREPTOCOCCUS PYOGENES 930; test: as above; conditions: S. pyogenes 930, unit assumed
[18] = system: PROVIDENCIA STUARTII CMX 640; conditions: P. stuartii CMX 640; BHI agar; unit assumed
[19] = system: STAPHYLOCOCCUS AUREUS ATCC 6538P; test: In vitro antibacterial activity, MIC, BHI agar dilution; conditions: S. aureus ATCC 6538P, 35-37° C., 20 to 24 hours, unit assumed
[20] = system: CANDIDA ALBICANS CCH 442; test: as above; conditions: C. albicans CCH 442, unit assumed
[21] = system: STAPHYLOCOCCUS AUREUS A-5278; test: as above; conditions: S. aureus A-5278, unit assumed
[22] = system: ESCHERICHIA COLI KNK 437; conditions: E. coli KNK 437, BHI agar, unit assumed
[23] = system: STREPTOCOCCUS PYOGENES EES61; test: In vitro antibacterial activity, MIC, BHI agar dilution; conditions: S. pyogenes EES61, unit assumed
[24] = system: KLEBSIELLA PNEUMONIAE ATCC 8045; test: as above
[25] = system: STAPHYLOCOCCUS AUREUS CMX 553; test: as above
[26] = system: PSEUDOMONAS AERUGINOSA BMH10; test: as above
[27] = system: PSEUDOMONAS AERUGINOSA 5007; test: as above
[28] = system: PSEUDOMONAS AERUGINOSA K799/61; test: as above
[29] = system: STREPTOCOCCUS PYOGENES PIU 2548; test: as above
[30] = system: STAPHYLOCOCCUS AUREUS CMX 642A; test: as above; conditions: S. aureus CMX 642A
[31] = system: ACINETOBACTER CALCOACETICUS CMX 669; test: as above; conditions: A. calcoaceticus CMX 669, unit assumed
[32] = system: PSEUDOMONAS AERUGINOSA DPHD-5263; test: as above; conditions: P. aeruginosa DPHD-5263, unit assumed
[33] = system: MYCOBACTERIUM SMEGMATIS ATCC 114; test: as above; conditions: M. smegmatis ATCC 114, unit assumed
[34] = system: STAPHYLOCOCCUS EPIDERMIDIS 3519; conditions: S. epidermidis 3519; BHI agar; unit assumed
[35] = E. aerogenes ATCC 13048, unit assumed
[36] = M. luteus ATCC 4698, unit assumed
[37] = M. luteus ATCC 9341, unit assumed
[38] = K. pneumoniae ATCC 8045, unit assumed
[39] = S. aureus CMX 553, unit assumed
[40] = P. aeruginosa BMH10, unit assumed
[41] = P. aeruginosa 5007, unit assumed
[42] = P. aeruginosa K799/61, unit assumed
[43] = S. pyogenes PIU 2548, unit assumed

CC[C@H]1OC(=O)[C@H](C)C(=O)[C@H](C)[C@@H](O[C@@H]2O[C@H](C)C[C@H](N(C)C)[C@H]2O)[C@](C)(OC)C[C@@H](C)C2=NC3CN(CCCc4ccccc4)CC3N3C(=O)O[C@@]1(C)[C@H]3[C@H]2C (stereo partly drawn) [Example 111]
MIC [1]: 50 µg/mL (≈ 62.7 µM)
MIC ([2]; listed as Ex 111, unit assumed): 1.56 µg/mL (≈ 1.96 µM)
MIC ([3]; listed as Ex 111, unit assumed): 0.2 µg/mL (≈ 0.251 µM)
MIC [4]: 0.39 µg/mL (≈ 0.489 µM)
MIC [5]: 100 µg/mL (≈ 125 µM)
MIC [6]: > 100 µg/mL
MIC [7]: > 100 µg/mL
MIC [8]: 25 µg/mL (≈ 31.4 µM)
MIC [9]: 0.2 µg/mL (≈ 0.251 µM)
MIC ([10]; E. aerogenes ATCC 13048, listed as Ex 111, unit assumed): > 100 µg/mL
MIC ([11]; S. agalactiae CMX 508, listed as Ex 111, unit assumed): 0.05 µg/mL (≈ 0.0627 µM)
MIC [12]: 0.1 µg/mL (≈ 0.125 µM)
MIC ([13]; M. luteus ATCC 4698, listed as Ex 111, unit assumed): 0.39 µg/mL (≈ 0.489 µM)
MIC ([14]; M. luteus ATCC 9341, listed as Ex 111, unit assumed): 0.05 µg/mL (≈ 0.0627 µM)
MIC ([15]; E. coli DC-2, listed as Ex 111, unit assumed): 100 µg/mL (≈ 125 µM)
MIC ([16]; S. bovis A-5169, listed as Ex 111, unit assumed): 0.01 µg/mL (≈ 0.0125 µM)
MIC [17]: 50 µg/mL (≈ 62.7 µM)
MIC [18]: > 100 µg/mL
MIC [19]: 0.2 µg/mL (≈ 0.251 µM)
MIC [20]: 0.39 µg/mL (≈ 0.489 µM)
MIC [21]: > 100 µg/mL
MIC ([22]; listed as Ex 111): > 100 µg/mL
MIC [23]: 0.02 µg/mL (≈ 0.0251 µM)
MIC ([24]; K. pneumoniae ATCC 8045, listed as Ex 111, unit assumed): > 100 µg/mL
MIC ([25]; S. aureus CMX 553, listed as Ex 111, unit assumed): 0.2 µg/mL (≈ 0.251 µM)
MIC ([26]; P. aeruginosa BMH10, listed as Ex 111, unit assumed): > 100 µg/mL
MIC ([27]; P. aeruginosa 5007, listed as Ex 111, unit assumed): 100 µg/mL (≈ 125 µM)
MIC ([28]; P. aeruginosa K799/61, listed as Ex 111, unit assumed): 50 µg/mL (≈ 62.7 µM)
MIC ([29]; S. pyogenes PIU 2548, listed as Ex 111, unit assumed): 0.39 µg/mL (≈ 0.489 µM)
MIC ([30]; listed as Ex 111, unit assumed): 0.39 µg/mL (≈ 0.489 µM)
MIC [31]: > 100 µg/mL
MIC [32]: > 100 µg/mL

CC[C@H]1OC(=O)[C@H](C)C(=O)[C@H](C)[C@@H](O[C@@H]2O[C@H](C)C[C@H](N(C)C)[C@H]2O)[C@](C)(OC)C[C@@H](C)C2=N[C@@H]3CN(C(=O)OCc4ccccc4)C[C@@H]3N3C(=O)O[C@@]1(C)[C@H]3[C@H]2C [Example 20]
MIC [1]: 100 µg/mL (≈ 123 µM)
MIC ([2]; unit assumed): > 100 µg/mL
MIC [4]: 3.1 µg/mL (≈ 3.81 µM)
MIC [33]: 3.1 µg/mL (≈ 3.81 µM)
MIC [5]: > 100 µg/mL
MIC [6]: > 100 µg/mL
MIC [7]: > 100 µg/mL
MIC [8]: > 100 µg/mL
MIC [9]: 0.78 µg/mL (≈ 0.959 µM)
MIC [10, 35]: > 100 µg/mL
MIC ([11]; S. agalactiae CMX 508, unit assumed): 0.1 µg/mL (≈ 0.123 µM)
MIC [12]: 0.39 µg/mL (≈ 0.48 µM)
MIC [13, 36]: 0.78 µg/mL (≈ 0.959 µM)
MIC [14, 37]: 0.39 µg/mL (≈ 0.48 µM)
MIC ([15]; E. coli DC-2, unit assumed): > 100 µg/mL
MIC ([16]; S. bovis A-5169, unit assumed): 0.1 µg/mL (≈ 0.123 µM)
MIC [17]: > 100 µg/mL
MIC [18]: > 100 µg/mL
MIC [20]: > 100 µg/mL
MIC [21]: > 100 µg/mL
MIC [22]: > 100 µg/mL
MIC [23]: 0.005 µg/mL (≈ 0.00615 µM)
MIC [34]: 0.78 µg/mL (≈ 0.959 µM)
MIC [24, 38]: > 100 µg/mL
MIC [25, 39]: 1.56 µg/mL (≈ 1.92 µM)
MIC [26, 40]: > 100 µg/mL
MIC [27, 41]: > 100 µg/mL
MIC [28, 42]: 6.2 µg/mL (≈ 7.63 µM)
MIC [29, 43]: 0.78 µg/mL (≈ 0.959 µM)
MIC ([30]; unit assumed): 1.56 µg/mL (≈ 1.92 µM)
MIC [31]: 100 µg/mL (≈ 123 µM)
MIC [32]: > 100 µg/mL

CCC1OC(=O)C(C)C(=O)C(C)C(OC2OC(C)CC(N(C)C)C2O)C(C)(OC)CC(C)C2=NCC(CSc3ccccc3)(CN(C)Cc3ccccc3)N3C(=O)OC1(C)C3C2C (stereo not drawn) [Example 133]
MIC [1]: > 100 µg/mL
MIC ([2]; unit assumed): > 100 µg/mL
MIC ([3]; unit assumed): 1.56 µg/mL (≈ 1.75 µM)
MIC [4]: 12.5 µg/mL (≈ 14 µM)
MIC [33]: 0.78 µg/mL (≈ 0.873 µM)
MIC [5]: > 100 µg/mL
MIC [6]: 25 µg/mL (≈ 28 µM)
MIC [7]: > 100 µg/mL
MIC [8]: > 100 µg/mL
MIC [9]: 0.78 µg/mL (≈ 0.873 µM)
MIC [10, 35]: > 100 µg/mL
MIC [12]: 0.1 µg/mL (≈ 0.112 µM)
MIC [13, 36]: 1.56 µg/mL (≈ 1.75 µM)
MIC [14, 37]: 0.2 µg/mL (≈ 0.224 µM)
MIC ([15]; E. coli DC-2, unit assumed): > 100 µg/mL
MIC [17]: 6.2 µg/mL (≈ 6.94 µM)
MIC [18]: > 100 µg/mL
MIC [19]: 0.78 µg/mL (≈ 0.873 µM)
MIC [20]: 50 µg/mL (≈ 56 µM)
MIC [21]: 25 µg/mL (≈ 28 µM)
MIC [22]: > 100 µg/mL
MIC [23]: 0.02 µg/mL (≈ 0.0224 µM)
MIC [34]: 1.56 µg/mL (≈ 1.75 µM)
MIC [24, 38]: > 100 µg/mL
MIC [25, 39]: 1.56 µg/mL (≈ 1.75 µM)
MIC [26, 40]: > 100 µg/mL
MIC [27, 41]: > 100 µg/mL
MIC [28, 42]: 12.5 µg/mL (≈ 14 µM)
MIC [29, 43]: 1.56 µg/mL (≈ 1.75 µM)
MIC ([30]; unit assumed): 1.56 µg/mL (≈ 1.75 µM)
MIC [31]: > 100 µg/mL
MIC [32]: > 100 µg/mL
